Measured values published in ChEMBL document CHEMBL1122438, “2-Phenylpyrazolo[1,5-a]pyrimidin-7-ones. A new class of nonsteroidal antiinflammatory drugs devoid of ulcerogenic activity” (J Med Chem, 1983).
Active and inactive are the calls of the source. The calls are words filed in the database; no cut-off is given here.

Tests used:
Rattus norvegicus [1] = assay: Percent reduction of edema in rat on 23rd day after oral administration of 30 mg/kg in antiarthritis assay; i = Inactive; type: functional, organism-based; parameters: dose 30 mg/kg; conditions: at 30 mg/kg
Mus musculus [2] = assay: Percent reduction of edema in mice 3h after oral administration of 30 mg/kg in carrageenan model; type: functional
Mus musculus [3] = assay: Percent reduction of edema in mice 3h after oral administration of 300 mg/kg in carrageenan model; type: functional
Rattus norvegicus [4] = assay: Percent reduction of edema in rat on 23rd day after oral administration of 300 mg/kg in antiarthritis assay; i = Inactive; type: functional, organism-based; parameters: dose 300 mg/kg; conditions: at 300 mg/kg
Mus musculus [5] = assay: Percent reduction of edema in mice 3h after oral administration of 20 mg/kg in carrageenan model; type: functional
Rattus norvegicus [6] = assay: Percent reduction of edema in rat on 23rd day after oral administration of 20 mg/kg in antiarthritis assay; i = Inactive; type: functional, organism-based; parameters: dose 20 mg/kg; conditions: at 20 mg/kg
Rattus norvegicus [7] = assay: Percent reduction of edema in rat on 23rd day after oral administration of 30 mg/kg in antiarthritis assay; type: functional
Mus musculus [8] = assay: Analgesic activity evaluated by measuring % analgesic effect, after oral administration of 80 mg/kg in acetic acid writhing test; type: functional
Rattus norvegicus [9] = assay: Antiinflammatory activity evaluated by measuring % reduction of edema, 3h after oral administration of 100 mg/kg in carrageenan model; type: functional
Mus musculus [10] = assay: Acute toxicity was evaluated as number of mice (tested=7) died after 72nd hour when 120 mg/kg is administered intraperitoneally; type: organism-based; parameters: dose 120 mg/kg, route intraperitoneal; conditions: in vivo, ip
Mus musculus [11] = assay: Analgesic activity evaluated by measuring % analgesic effect, after oral administration of 60 mg/kg in acetic acid writhing test; type: functional
Mus musculus [12] = assay: Acute toxicity was evaluated as number of mice (tested=7) died after 72nd hour when 130 mg/kg is administered intraperitoneally; type: organism-based; parameters: dose 130 mg/kg, route intraperitoneal; conditions: in vivo, ip
Rattus norvegicus [13] = assay: Antiinflammatory activity evaluated by measuring % reduction of edema, 3h after oral administration of 10 mg/kg in carrageenan model; type: functional
[14] = Toxic activity is expressed as LD50 values; type: toxicity, organism-based; conditions: mouse, in vivo
Mus musculus [15] = organism: Mus musculus; assay: Analgesic activity in acetic acid writhing test, activity is expressed as ED50 values; type: functional
Mus musculus [16] = assay: Acute toxicity was evaluated as number of mice (tested=7) died after 72nd hour when 115 mg/kg is administered intraperitoneally; type: organism-based; parameters: dose 115 mg/kg, route intraperitoneal; conditions: in vivo, ip
[17] = Therapeutic index was expressed as LD50/ED50 carragreenin model; conditions: mouse; read-out: TI
Mus musculus [18] = assay: […] toxicity was evaluated (number of mice died after 72nd hour when 150 mg/kg is administered intraperitoneally; type: organism-based; parameters: dose 150 mg/kg, route intraperitoneal; conditions: in vivo, ip
Mus musculus [19] = assay: Analgesic activity evaluated by measuring % analgesic effect, after oral administration of 120 mg/kg in acetic acid writhing test; type: functional
Rattus norvegicus [20] = organism: Rattus norvegicus; assay: Antiinflammatory activity in carrageenan model, activity is expressed as ED50 values; type: functional
Rattus norvegicus [21] = assay: Antiinflammatory activity evaluated by measuring % reduction of edema, 3h after oral administration of 25 mg/kg in carrageenan model; type: functional
Rattus norvegicus [22] = organism: Rattus norvegicus; assay: Ulcer index of the compound; type: functional
Mus musculus [23] = assay: Acute toxicity was evaluated as number of mice (tested=7) died after 72nd hour when 100 mg/kg is administered intraperitoneally; type: organism-based; parameters: dose 100 mg/kg, route intraperitoneal; conditions: in vivo, ip

CCn1ccc(=O)n2nc(-c3ccc(C)cc3)cc12
Reduction (Rattus norvegicus [1]): inactive | Reduction (Mus musculus [2]): 35.9%

CCOC(=O)/C=C/n1ccc(=O)n2nc(-c3ccccc3)cc12
Reduction (Rattus norvegicus [1]): inactive | Reduction (Mus musculus [2]): 23.4%

CCn1ccc(=O)n2nc(-c3ccccc3)c(N=O)c12
Reduction (Rattus norvegicus [1]): inactive | Reduction (Mus musculus [2]): 7.03%

Cc1cn(C)c2cc(-c3ccccc3)nn2c1=O
Reduction (Mus musculus [3]): 68.7% | Reduction (Rattus norvegicus [4]): inactive

Cn1ccc(=O)n2nccc12
Reduction (Mus musculus [5]): 0% | Reduction (Rattus norvegicus [6]): inactive

CCCn1c(=O)ccn2nc(-c3ccccc3)cc12
Reduction (Rattus norvegicus [1]): inactive | Reduction (Mus musculus [2]): 18.9%

O=c1ccn(CCO)c2cc(-c3ccccc3)nn12
Reduction (Rattus norvegicus [1]): inactive | Reduction (Mus musculus [2]): 16.5%

CCn1ccc(=O)n2nc(C)cc12
Reduction (Rattus norvegicus [1]): inactive | Reduction (Mus musculus [2]): 7.3%

CCOC(Cn1ccc(=O)n2nc(-c3ccccc3)cc12)OCC
Reduction (Mus musculus [5]): 12.5% | Reduction (Rattus norvegicus [6]): inactive

Oc1ccnc2cc(-c3ccccc3)nn12
Reduction (Mus musculus [3]): 27.3% | Reduction (Rattus norvegicus [4]): inactive

CCn1ccc(=O)n2nc(-c3ccccc3)c(SC#N)c12
Reduction (Rattus norvegicus [1]): inactive | Reduction (Mus musculus [2]): 42.2%

Cn1ccc(=O)n2nc(-c3ccccc3)cc12
Reduction (Rattus norvegicus [7]): 29.8% | Analgesic effect (Mus musculus [8]): 53.3% | Reduction (Rattus norvegicus [9]): 67.5% | Acute toxicity (Mus musculus [10]): 3 | Analgesic effect (Mus musculus [11]): 43% | Acute toxicity (Mus musculus [12]): 4 | Reduction (Rattus norvegicus [13]): 34.2% | LD50 [14]: 127 mg/kg | ED50 (Mus musculus [15]): 69.6 mg/kg | Acute toxicity (Mus musculus [16]): 1 | selectivity ratio [17]: 5.13 | Acute toxicity (Mus musculus [18]): 6 | Analgesic effect (Mus musculus [19]): 80.7% | ED50 (Rattus norvegicus [20]): 24.7 mg/kg | Reduction (Rattus norvegicus [21]): 55.1% | UI (Rattus norvegicus [22]): 0.5 | Reduction (Mus musculus [2]): 54% | Acute toxicity (Mus musculus [23]): 0
